The supplement of paper PMC10307832

Legend:
Assay in all cases: relative viability (nuclei count vs DMSO), 5 days (fraction); higher = more cells survive
Neratinib + Palbociclib = compound: CCOc1cc2ncc(C#N)c(Nc3ccc(OCc4ccccn4)c(Cl)c3)c2cc1NC(=O)/C=C/CN(C)C [Neratinib] + CC(=O)c1c(C)c2cnc(Nc3ccc(N4CCNCC4)cn3)nc2n(C2CCCC2)c1=O [Palbociclib] (partner 0.5 µM)
In short: (§1)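 Relative viability was taken as the ratio of nuclei in treated wells to nuclei in vehicle wells. Lung cancer cell lines in 1536-well plates received compounds by pin tool one day after seeding, either one drug alone or a fixed anchor-drug dose plus five library-drug doses (not always all listed) in √10 steps. Nuclei were counted on 4× images after 5 days of treatment, and values are medians of duplicate plates.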

Neratinib + Crizotinib = compound: CCOc1cc2ncc(C#N)c(Nc3ccc(OCc4ccccn4)c(Cl)c3)c2cc1NC(=O)/C=C/CN(C)C [Neratinib] + C[C@@H](Oc1cc(-c2cnn(C3CCNCC3)c2)cnc1N)c1c(Cl)ccc(F)c1Cl [Crizotinib] (partner 1 µM)
In short: as §1

Neratinib + AZD7762 = compound: CCOc1cc2ncc(C#N)c(Nc3ccc(OCc4ccccn4)c(Cl)c3)c2cc1NC(=O)/C=C/CN(C)C [Neratinib] + NC(=O)Nc1cc(-c2cccc(F)c2)sc1C(=O)N[C@H]1CCCNC1 [AZD7762] (partner 0.2 µM)
In short: as §1

Neratinib + Vorinostat = compound: CCOc1cc2ncc(C#N)c(Nc3ccc(OCc4ccccn4)c(Cl)c3)c2cc1NC(=O)/C=C/CN(C)C [Neratinib] + O=C(CCCCCCC(=O)Nc1ccccc1)NO [Vorinostat] (partner 1 µM)
In short: as §1

Cell Line | relative viability (Neratinib + Palbociclib; first compound 0.01 µM) | relative viability (Neratinib + Palbociclib; first compound 0.03162 µM) | relative viability (Neratinib + Palbociclib; first compound 0.1 µM) | relative viability (Neratinib + Palbociclib; first compound 0.3162 µM) | relative viability (Neratinib + Palbociclib; first compound 1 µM) | relative viability (Neratinib + Crizotinib; first compound 0.01 µM) | relative viability (Neratinib + Crizotinib; first compound 0.03162 µM) | relative viability (Neratinib + Crizotinib; first compound 0.3162 µM) | relative viability (Neratinib + Crizotinib; first compound 1 µM) | relative viability (Neratinib + AZD7762; first compound 0.01 µM) | relative viability (Neratinib + AZD7762; first compound 0.03162 µM) | relative viability (Neratinib + AZD7762; first compound 0.1 µM) | relative viability (Neratinib + AZD7762; first compound 0.3162 µM) | relative viability (Neratinib + AZD7762; first compound 1 µM) | relative viability (Neratinib + Vorinostat; first compound 0.01 µM) | relative viability (Neratinib + Vorinostat; first compound 0.03162 µM) | relative viability (Neratinib + Vorinostat; first compound 0.1 µM) | relative viability (Neratinib + Vorinostat; first compound 0.3162 µM) | relative viability (Neratinib + Vorinostat; first compound 1 µM) | relative viability (Neratinib + Crizotinib; first compound 0.1 µM)
NCI-H2087 | 0.212 | 0.271 | 0.217 | 0.182 | 0.14 | 1.02 | 1.03 | 0.978 | 0.667 | 1.36 | 1.29 | 0.985 | 1.24 | 0.694 | 0.783 | 0.566 | 0.538 | 0.711 | 0.573 | 
NCI-H2126 | 0.33 | 0.347 |  | 0.344 | 0.309 | 1.05 | 1.03 | 1.06 | 0.51 | 1.07 | 0.999 | 0.873 | 1 | 0.741 | 0.776 | 0.79 | 0.706 | 0.574 | 0.379 | 1.03
NCI-H2170 | 0.361 | 0.352 | 0.199 | 0.144 | 0.151 | 1.14 | 0.77 | 0.302 | 0.223 | 0.816 | 0.549 | 0.515 | 0.177 | 0.159 | 0.862 | 0.647 | 0.407 | 0.205 | 0.239 | 0.617
NCI-H2347 | 0.401 | 0.41 | 0.341 | 0.494 | 0.479 | 0.693 | 0.743 | 0.675 | 0.464 | 0.727 | 0.733 | 0.533 | 0.756 | 0.457 | 0.64 | 0.715 | 0.55 | 0.634 | 0.407 | 0.629
NCI-H2405 | 0.56 | 0.579 | 0.534 | 0.567 | 0.419 | 0.873 | 0.879 | 0.765 | 0.781 | 0.818 | 0.799 | 0.751 | 0.635 | 0.446 | 1.32 | 1.18 | 0.955 | 1.04 | 0.891 | 0.834
NCI-H3122 | 0.205 | 0.208 | 0.188 | 0.181 | 0.148 | 0.291 | 0.284 | 0.188 | 0.198 | 1.05 | 1 | 0.88 | 1.01 | 0.438 | 1.04 | 1.09 | 1.02 | 0.992 | 0.609 | 0.222
PC-3 [JPC-3] | 0.513 | 0.559 | 0.492 | 0.544 | 0.471 | 1.09 | 1.09 | 0.948 | 0.345 | 0.798 | 0.863 | 0.856 | 0.487 | 0.51 | 1.14 | 0.82 | 0.783 | 0.424 | 0.665 | 0.997
PC-14 | 0.625 | 0.672 | 0.474 | 0.0909 | 0.0675 |  | 0.851 | 0.662 | 0.356 | 0.366 | 0.41 | 0.36 | 0.242 | 0.134 | 0.773 | 0.754 | 0.557 | 0.359 | 0.0625 | 0.796
RERF-LC-KJ | 1.16 | 1.16 | 1.08 | 0.84 | 0.467 | 0.847 | 0.817 | 0.701 | 0.633 | 1.06 | 1.1 | 0.741 | 0.734 | 0.679 | 0.705 | 0.742 | 0.55 | 0.66 | 0.382 | 0.795
